Reference: ChEMBL document CHEMBL5291721, “A preclinical secondary pharmacology resource illuminates target-adverse drug reaction associations of marketed drugs” (Nat Commun, 2023)

Assays:
[1] = target: T1, Alpha-1A adrenergic receptor (Homo sapiens, UniProt P35348)
T1 sequence (P35348 whole entry): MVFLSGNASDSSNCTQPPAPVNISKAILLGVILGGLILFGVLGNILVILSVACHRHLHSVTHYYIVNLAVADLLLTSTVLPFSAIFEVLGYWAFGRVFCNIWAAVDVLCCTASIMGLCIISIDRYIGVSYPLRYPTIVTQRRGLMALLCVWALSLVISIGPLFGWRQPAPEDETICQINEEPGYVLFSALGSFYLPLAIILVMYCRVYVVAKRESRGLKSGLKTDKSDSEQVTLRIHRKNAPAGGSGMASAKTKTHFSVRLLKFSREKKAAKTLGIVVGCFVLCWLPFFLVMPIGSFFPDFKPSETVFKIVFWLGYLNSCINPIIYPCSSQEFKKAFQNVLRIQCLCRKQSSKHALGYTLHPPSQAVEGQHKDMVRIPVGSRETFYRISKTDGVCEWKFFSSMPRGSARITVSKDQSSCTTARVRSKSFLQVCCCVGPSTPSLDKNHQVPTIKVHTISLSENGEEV

Mu-type opioid receptor = Mu-type opioid receptor (Homo sapiens, UniProt P35372)
Melanocortin receptor 4 = Melanocortin receptor 4 (Homo sapiens, UniProt P32245)
Androgen receptor [2] = target: T2, Androgen receptor (Rattus norvegicus, UniProt P15207)
T2 sequence (P15207 whole entry): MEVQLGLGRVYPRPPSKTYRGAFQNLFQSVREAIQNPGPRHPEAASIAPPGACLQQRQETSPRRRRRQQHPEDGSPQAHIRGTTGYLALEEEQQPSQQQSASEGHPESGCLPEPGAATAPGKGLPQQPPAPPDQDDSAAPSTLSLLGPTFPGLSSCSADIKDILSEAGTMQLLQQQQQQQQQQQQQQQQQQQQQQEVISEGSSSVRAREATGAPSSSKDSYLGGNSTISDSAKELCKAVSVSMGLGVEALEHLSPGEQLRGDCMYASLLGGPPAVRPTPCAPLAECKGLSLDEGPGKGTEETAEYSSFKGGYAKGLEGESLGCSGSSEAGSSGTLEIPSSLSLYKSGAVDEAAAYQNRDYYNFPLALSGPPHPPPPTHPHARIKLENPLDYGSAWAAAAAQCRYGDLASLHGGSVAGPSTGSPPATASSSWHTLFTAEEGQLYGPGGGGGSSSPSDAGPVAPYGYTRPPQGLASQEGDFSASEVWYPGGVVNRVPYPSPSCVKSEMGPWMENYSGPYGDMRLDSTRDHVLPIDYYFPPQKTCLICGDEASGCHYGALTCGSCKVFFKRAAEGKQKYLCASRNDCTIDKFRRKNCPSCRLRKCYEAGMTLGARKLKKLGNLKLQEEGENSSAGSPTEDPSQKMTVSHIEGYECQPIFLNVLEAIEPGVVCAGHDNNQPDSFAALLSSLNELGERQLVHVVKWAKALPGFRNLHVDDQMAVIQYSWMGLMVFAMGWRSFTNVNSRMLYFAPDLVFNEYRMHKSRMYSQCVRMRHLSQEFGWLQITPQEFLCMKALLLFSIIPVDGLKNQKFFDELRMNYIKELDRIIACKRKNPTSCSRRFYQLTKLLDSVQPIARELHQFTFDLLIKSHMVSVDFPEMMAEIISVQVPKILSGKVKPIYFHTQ

Androgen receptor [3] = target: T2, Androgen receptor; assay type: functional
[4] = target: T3, Gamma-aminobutyric acid receptor subunit alpha-1/alpha-2/beta-2/gamma-2 (Homo sapiens, UniProt P14867+P18507+P47869+P47870); assay type: functional, cell-based
Histamine H1 receptor [5] = target: T4, Histamine H1 receptor (Homo sapiens, UniProt P35367); assay type: functional, cell-based
[6] = target: T5, Peroxisome proliferator-activated receptor gamma (Homo sapiens, UniProt P37231); assay type: functional
T5 sequence (P37231 whole entry): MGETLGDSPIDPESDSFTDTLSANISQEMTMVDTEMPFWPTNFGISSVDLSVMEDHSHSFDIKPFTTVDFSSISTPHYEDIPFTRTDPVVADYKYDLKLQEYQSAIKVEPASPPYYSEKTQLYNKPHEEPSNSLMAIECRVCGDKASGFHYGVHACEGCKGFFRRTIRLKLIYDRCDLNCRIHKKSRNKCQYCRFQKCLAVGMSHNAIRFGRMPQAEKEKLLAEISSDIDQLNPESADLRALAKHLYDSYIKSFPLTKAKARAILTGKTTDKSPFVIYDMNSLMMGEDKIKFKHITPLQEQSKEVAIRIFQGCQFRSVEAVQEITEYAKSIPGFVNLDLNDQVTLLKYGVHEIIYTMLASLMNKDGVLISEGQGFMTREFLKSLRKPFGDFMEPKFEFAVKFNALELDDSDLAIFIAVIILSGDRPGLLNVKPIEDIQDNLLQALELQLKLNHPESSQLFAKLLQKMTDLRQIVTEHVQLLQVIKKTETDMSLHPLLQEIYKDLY

[7] = target: T5, Peroxisome proliferator-activated receptor gamma; assay type: functional; remark: listed apart in the source
[8] = target: T3, Gamma-aminobutyric acid receptor subunit alpha-1/alpha-2/beta-2/gamma-2; assay type: functional, cell-based; remark: listed apart in the source
Histamine H1 receptor [9] = target: T4, Histamine H1 receptor; assay type: functional, cell-based; remark: listed apart in the source
[10] = target: Voltage-dependent N-type calcium channel subunit alpha-1B (Rattus norvegicus, UniProt Q02294); assay type: functional
[11] = target: Neurotensin receptor type 1 (Homo sapiens, UniProt P30989)
Histamine H2 receptor = Histamine H2 receptor (Homo sapiens, UniProt P25021)
D(1A) dopamine receptor = D(1A) dopamine receptor (Homo sapiens, UniProt P21728)
Note: assay procedure not described here.

Histamine H2 receptor, sequence (P25021 whole entry): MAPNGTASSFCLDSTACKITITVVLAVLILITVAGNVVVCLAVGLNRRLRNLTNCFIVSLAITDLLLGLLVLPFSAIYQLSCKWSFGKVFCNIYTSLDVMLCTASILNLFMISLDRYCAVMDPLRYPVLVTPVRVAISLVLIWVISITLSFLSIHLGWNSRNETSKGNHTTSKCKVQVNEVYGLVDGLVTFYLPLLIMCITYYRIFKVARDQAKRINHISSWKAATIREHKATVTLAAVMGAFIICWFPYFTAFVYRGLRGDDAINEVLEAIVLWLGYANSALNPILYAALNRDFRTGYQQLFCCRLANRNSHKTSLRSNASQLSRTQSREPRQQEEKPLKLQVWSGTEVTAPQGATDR
Voltage-dependent N-type calcium channel subunit alpha-1B, sequence (Q02294 whole entry): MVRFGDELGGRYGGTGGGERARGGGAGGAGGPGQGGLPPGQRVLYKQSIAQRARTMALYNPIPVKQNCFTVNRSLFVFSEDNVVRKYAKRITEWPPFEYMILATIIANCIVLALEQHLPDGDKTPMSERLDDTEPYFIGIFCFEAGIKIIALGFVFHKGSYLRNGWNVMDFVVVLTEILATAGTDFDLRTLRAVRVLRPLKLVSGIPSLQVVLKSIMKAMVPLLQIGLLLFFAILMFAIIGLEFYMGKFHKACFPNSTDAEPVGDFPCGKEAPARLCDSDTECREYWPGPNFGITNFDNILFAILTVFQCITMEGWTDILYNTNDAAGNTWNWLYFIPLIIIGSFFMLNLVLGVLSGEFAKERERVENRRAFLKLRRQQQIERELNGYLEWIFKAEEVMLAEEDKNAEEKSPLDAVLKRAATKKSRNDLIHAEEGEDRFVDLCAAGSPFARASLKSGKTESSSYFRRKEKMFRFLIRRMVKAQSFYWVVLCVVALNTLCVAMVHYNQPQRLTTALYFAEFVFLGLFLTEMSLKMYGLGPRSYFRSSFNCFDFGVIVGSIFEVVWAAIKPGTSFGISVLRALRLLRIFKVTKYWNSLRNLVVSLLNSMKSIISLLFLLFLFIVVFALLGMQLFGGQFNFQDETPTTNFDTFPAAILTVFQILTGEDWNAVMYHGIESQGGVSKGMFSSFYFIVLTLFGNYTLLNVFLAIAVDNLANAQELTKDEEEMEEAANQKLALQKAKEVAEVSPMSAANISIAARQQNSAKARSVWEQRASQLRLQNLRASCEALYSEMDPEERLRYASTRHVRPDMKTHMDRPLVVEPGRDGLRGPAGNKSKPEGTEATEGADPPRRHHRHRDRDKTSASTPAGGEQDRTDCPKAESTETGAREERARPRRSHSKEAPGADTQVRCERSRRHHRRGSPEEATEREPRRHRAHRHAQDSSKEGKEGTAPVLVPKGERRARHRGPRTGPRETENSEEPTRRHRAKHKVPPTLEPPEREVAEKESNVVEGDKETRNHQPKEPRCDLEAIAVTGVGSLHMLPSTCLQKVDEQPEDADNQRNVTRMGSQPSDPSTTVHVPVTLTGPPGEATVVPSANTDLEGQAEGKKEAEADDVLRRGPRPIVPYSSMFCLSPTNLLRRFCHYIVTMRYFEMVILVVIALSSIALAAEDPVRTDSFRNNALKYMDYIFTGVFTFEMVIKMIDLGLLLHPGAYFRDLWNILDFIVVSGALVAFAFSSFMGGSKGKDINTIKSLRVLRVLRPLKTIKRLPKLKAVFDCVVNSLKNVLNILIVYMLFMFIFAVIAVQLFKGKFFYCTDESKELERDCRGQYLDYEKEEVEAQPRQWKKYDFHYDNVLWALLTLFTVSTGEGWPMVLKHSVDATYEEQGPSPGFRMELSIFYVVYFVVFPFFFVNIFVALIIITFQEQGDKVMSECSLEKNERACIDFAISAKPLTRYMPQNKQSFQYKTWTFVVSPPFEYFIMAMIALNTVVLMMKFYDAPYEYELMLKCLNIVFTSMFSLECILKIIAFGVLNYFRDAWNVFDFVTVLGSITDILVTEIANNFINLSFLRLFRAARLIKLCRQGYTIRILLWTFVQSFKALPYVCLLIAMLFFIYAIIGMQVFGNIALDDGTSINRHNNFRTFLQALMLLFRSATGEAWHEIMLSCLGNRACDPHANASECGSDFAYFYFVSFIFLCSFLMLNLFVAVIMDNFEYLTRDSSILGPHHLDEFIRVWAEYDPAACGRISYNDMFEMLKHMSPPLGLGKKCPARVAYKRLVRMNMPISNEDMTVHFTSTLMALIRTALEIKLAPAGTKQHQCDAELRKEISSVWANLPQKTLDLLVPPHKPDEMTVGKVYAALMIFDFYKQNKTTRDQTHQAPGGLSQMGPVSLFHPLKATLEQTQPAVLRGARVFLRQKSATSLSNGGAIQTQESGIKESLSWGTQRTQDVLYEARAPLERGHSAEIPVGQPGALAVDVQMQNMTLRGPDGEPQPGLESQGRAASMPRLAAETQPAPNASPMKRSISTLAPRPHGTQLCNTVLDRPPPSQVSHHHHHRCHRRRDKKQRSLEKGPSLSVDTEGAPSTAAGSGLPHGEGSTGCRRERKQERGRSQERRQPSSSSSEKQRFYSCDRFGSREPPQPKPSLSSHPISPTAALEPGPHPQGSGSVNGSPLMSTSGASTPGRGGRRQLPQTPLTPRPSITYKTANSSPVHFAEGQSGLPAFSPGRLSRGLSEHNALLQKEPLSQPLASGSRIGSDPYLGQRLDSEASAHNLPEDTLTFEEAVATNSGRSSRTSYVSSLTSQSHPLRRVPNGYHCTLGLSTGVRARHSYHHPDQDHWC
Mu-type opioid receptor, sequence (P35372 whole entry): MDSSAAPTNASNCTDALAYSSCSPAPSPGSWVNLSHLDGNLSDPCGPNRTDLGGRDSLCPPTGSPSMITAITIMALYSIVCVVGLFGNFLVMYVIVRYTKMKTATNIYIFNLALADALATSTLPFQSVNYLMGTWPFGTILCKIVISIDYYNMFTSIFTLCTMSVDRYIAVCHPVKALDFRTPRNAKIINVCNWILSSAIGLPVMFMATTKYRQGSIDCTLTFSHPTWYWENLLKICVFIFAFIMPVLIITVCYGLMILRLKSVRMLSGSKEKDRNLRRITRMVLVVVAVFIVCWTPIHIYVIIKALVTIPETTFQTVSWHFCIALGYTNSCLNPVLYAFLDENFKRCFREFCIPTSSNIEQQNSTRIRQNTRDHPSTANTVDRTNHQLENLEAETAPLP
T4 sequence (P35367 whole entry): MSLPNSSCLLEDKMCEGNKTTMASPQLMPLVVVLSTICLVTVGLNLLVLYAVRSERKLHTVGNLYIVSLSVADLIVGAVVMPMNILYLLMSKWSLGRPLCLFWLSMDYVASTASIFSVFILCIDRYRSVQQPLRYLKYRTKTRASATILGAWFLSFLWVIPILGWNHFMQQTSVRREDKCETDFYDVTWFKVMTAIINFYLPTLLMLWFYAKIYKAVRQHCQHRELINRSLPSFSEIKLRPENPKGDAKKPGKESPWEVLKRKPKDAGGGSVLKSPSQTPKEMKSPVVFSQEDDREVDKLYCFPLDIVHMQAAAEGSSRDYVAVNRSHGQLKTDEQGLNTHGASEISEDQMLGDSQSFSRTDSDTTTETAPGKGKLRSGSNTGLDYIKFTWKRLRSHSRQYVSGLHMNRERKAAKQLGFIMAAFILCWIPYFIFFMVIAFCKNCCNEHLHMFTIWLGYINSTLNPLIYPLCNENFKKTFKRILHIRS
Melanocortin receptor 4, sequence (P32245 whole entry): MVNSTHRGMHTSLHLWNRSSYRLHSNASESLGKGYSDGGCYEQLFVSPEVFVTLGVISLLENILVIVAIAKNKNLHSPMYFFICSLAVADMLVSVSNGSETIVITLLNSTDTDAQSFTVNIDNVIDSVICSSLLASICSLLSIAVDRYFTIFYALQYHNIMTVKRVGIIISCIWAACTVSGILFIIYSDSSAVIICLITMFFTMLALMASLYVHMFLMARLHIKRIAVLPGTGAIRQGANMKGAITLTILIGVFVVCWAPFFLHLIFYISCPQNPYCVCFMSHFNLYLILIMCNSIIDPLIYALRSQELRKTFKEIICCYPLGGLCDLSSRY
Neurotensin receptor type 1, sequence (P30989 whole entry): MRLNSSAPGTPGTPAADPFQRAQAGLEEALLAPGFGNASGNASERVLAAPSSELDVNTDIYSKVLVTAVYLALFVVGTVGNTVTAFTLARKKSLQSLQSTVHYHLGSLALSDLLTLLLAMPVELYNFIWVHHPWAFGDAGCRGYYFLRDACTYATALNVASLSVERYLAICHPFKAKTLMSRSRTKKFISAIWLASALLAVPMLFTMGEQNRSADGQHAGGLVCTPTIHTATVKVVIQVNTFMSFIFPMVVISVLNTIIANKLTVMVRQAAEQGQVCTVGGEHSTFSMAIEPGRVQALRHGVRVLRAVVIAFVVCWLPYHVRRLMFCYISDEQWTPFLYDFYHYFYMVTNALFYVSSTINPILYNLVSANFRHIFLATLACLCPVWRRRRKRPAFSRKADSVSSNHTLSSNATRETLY
D(1A) dopamine receptor, sequence (P21728 whole entry): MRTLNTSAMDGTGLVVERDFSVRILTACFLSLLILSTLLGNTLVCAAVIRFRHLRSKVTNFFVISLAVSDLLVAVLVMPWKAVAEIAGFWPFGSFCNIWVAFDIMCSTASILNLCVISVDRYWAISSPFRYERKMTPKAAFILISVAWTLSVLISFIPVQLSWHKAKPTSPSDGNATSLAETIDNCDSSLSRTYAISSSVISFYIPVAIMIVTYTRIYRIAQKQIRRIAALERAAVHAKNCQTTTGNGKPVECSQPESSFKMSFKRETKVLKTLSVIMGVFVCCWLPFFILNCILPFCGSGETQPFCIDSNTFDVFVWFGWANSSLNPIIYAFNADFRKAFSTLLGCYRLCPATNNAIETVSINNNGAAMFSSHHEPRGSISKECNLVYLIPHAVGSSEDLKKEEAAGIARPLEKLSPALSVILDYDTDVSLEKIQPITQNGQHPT

SMILES | AC50 [1] [µM] | AC50 (Mu-type opioid receptor) [µM] | AC50 (Melanocortin receptor 4) [µM] | AC50 (Androgen receptor [2]) [µM] | AC50 (Androgen receptor [3]) [µM] | AC50 [4] [µM] | AC50 (Histamine H1 receptor [5]) [µM] | AC50 [6] [µM] | AC50 [7] [µM] | AC50 [8] [µM] | AC50 (Histamine H1 receptor [9]) [µM] | AC50 [10] [µM] | AC50 [11] [µM] | AC50 (Histamine H2 receptor) [µM] | AC50 (D(1A) dopamine receptor) [µM]
NS(=O)(=O)c1cc2c(cc1C(F)(F)F)NC(Cc1ccccc1)NS2(=O)=O (stereo not drawn) [BENDROFLUMETHIAZIDE] | > 10 | > 30 | > 10 | > 10 | – | – | – | – | – | – | – | – | – | – | –
CCN(CC)C(=O)C1CN2CCc3cc(OC)c(OC)cc3C2CC1OC(C)=O (stereo not drawn) [BENZQUINAMIDE] | > 10 | > 30 | > 10 | > 10 | > 30 | > 30 | > 30 | > 30 | > 30 | > 30 | > 30 | – | – | – | –
CCCCC1(CC)C(=O)NC(=O)NC1=O [BUTETHAL] | – | – | – | – | > 30 | > 30 | – | > 30 | > 30 | > 30 | – | – | – | – | –
CCCC(C)(COC(N)=O)COC(=O)NC(C)C (stereo not drawn) [CARISOPRODOL] | 13.3 | > 30 | > 30 | – | – | – | > 30 | – | – | – | > 30 | > 10 | > 30 | > 10 | > 10
COCCOC(=O)C1=C(C)NC(C)=C(C(=O)OC/C=C/c2ccccc2)C1c1cccc([N+](=O)[O-])c1 (stereo not drawn) [CILNIDIPINE] | – | – | – | – | – | > 30 | > 30 | – | – | > 30 | > 30 | – | – | – | –
CC(C)(C)NCC(O)c1cc(Cl)c(N)c(Cl)c1 (stereo not drawn) [CLENBUTEROL] | 13 | – | > 30 | > 30 | > 30 | > 30 | – | – | – | – | – | – | – | – | –
CCCCC[C@H](O)/C=C/[C@H]1[C@H](O)CC(=O)[C@@H]1C/C=C\CCCC(=O)O [DINOPROSTONE] | – | – | – | – | 23 | – | – | – | – | – | – | – | – | – | > 30
Clc1ccc2c(c1)C(c1ccccc1)=NCc1nncn1-2 [ESTAZOLAM] | > 10 | > 30 | > 30 | > 30 | – | – | – | – | – | – | – | – | – | – | –
CC(=O)OCC(CCn1cnc2cnc(N)nc21)COC(C)=O [FAMCICLOVIR] | 11.6 | > 30 | > 30 | > 30 | – | – | – | – | – | – | – | > 10 | > 30 | > 10 | > 10
Nc1nc(F)nc2c1ncn2[C@@H]1O[C@H](COP(=O)(O)O)[C@@H](O)[C@@H]1O [FLUDARABINE PHOSPHATE] | – | – | > 30 | > 30 | – | – | – | – | – | – | – | – | – | – | –
O=C(O)c1ccccc1Nc1cccc(C(F)(F)F)c1 [FLUFENAMIC ACID] | 1 | > 30 | > 30 | > 30 | – | – | – | – | – | – | – | > 10 | > 30 | – | –
COC1=C(OC)C(=O)C(CCCCCCCCCCO)=C(C)C1=O [IDEBENONE] | > 10 | > 10 | > 30 | > 30 | – | – | – | – | – | – | – | > 10 | > 30 | > 10 | > 10
CC1(C)C(/C=C/C=C/C=C/C=C2\N(CCCCS(=O)(=O)O)c3ccc4ccccc4c3C2(C)C)=[N+](CCCCS(=O)(=O)[O-])c2ccc3ccccc3c21 [INDOCYANINE GREEN ACID FORM] | – | – | – | – | 6.8 | > 30 | > 30 | – | – | – | > 30 | – | – | – | –
Nc1nc2c(c(=O)[nH]1)N(C=O)C(CNc1ccc(C(=O)N[C@@H](CCC(=O)O)C(=O)O)cc1)CN2 (stereo partly drawn) [LEUCOVORIN] | – | – | – | – | > 30 | > 30 | – | > 30 | > 30 | – | – | – | – | – | –
CCCC[C@H](C)C[C@H](O)/C=C/[C@H]1[C@H](O)CC(=O)[C@@H]1CCCC/C=C/C(=O)O [LIMAPROST] | – | – | – | – | – | > 30 | > 30 | > 30 | > 30 | > 30 | > 30 | – | – | – | –
CC#CCn1c(N2CCC[C@@H](N)C2)nc2c1c(=O)n(Cc1nc(C)c3ccccc3n1)c(=O)n2C [LINAGLIPTIN] | – | > 30 | 41.8 | > 30 | – | – | – | – | – | – | – | > 10 | – | 12.3 | > 10
Cc1ccc(NC(=O)C2(c3ccc4c(c3)OC(F)(F)O4)CC2)nc1-c1cccc(C(=O)O)c1 [LUMACAFTOR] | – | – | – | – | – | – | > 30 | > 30 | > 30 | > 30 | > 30 | – | – | – | –
CCOC(=O)Nc1ccc2c(c1)N(C(=O)CCN1CCOCC1)c1ccccc1S2 [MORICIZINE] | – | – | – | – | > 30 | – | > 30 | > 30 | > 30 | > 30 | > 30 | – | – | – | –
O=C1Nc2ccc(Cl)cc2C(c2ccccc2)=NC1O (stereo not drawn) [OXAZEPAM] | – | > 10 | > 30 | – | – | – | > 30 | – | – | – | > 30 | > 10 | > 30 | > 10 | > 10
CC1(C)C(C=C(Cl)Cl)C1C(=O)OCc1cccc(Oc2ccccc2)c1 (stereo not drawn) [PERMETHRIN] | > 10 | > 30 | > 10 | > 30 | – | – | – | – | – | – | – | – | – | – | –
Cc1ccc(=O)n(-c2ccccc2)c1 [PIRFENIDONE] | > 10 | > 30 | – | – | – | > 30 | > 30 | > 30 | > 30 | > 30 | > 30 | – | – | – | –
NC(=O)CCC/N=C(\c1ccc(Cl)cc1)c1cc(F)ccc1O [PROGABIDE] | > 10 | > 30 | > 10 | > 10 | – | – | – | – | – | – | – | – | – | – | –
Cc1ccc2c(-c3ccccc3)nc(=O)n(C(C)C)c2c1 [PROQUAZONE] | – | – | – | – | – | > 30 | > 30 | – | – | > 30 | > 30 | – | – | – | –
CN1CCN(c2c(F)cc3c(=O)c(C(=O)O)cn4c3c2SCC4)CC1 [RUFLOXACIN] | – | – | – | – | – | > 30 | > 30 | – | – | > 30 | > 30 | – | – | – | –
CN1c2ccccc2C(NCCCCCCC(=O)O)c2ccc(Cl)cc2S1(=O)=O (stereo not drawn) [TIANEPTINE] | – | > 30 | – | – | – | > 30 | > 30 | – | – | > 30 | > 30 | – | – | – | –
N#C[C@@H]1CCCN1C(=O)CNC12CC3CC(CC(O)(C3)C1)C2 [VILDAGLIPTIN] | – | > 10 | > 30 | > 30 | – | – | – | – | – | – | – | > 10 | > 10 | > 10 | > 10
